pIC50: −log10 of the molar value. Structures can show the parent of a compound that is named as a salt.
target: PAPD5 enzyme (Homo sapiens, UniProt Q8NDF8); assay: PAPD5 assay (AMP incorporation onto 3'-terminus of RNA substrate, fluorescence quench); format: biochemical; conditions: PAPD5 protein 0.3 nM, ATP 50 μM, 30 minutes preincubation, room temperature; read-out: Potency PAPD5 IC50
Outline: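 Enzyme at 0.3 nM with 50 μM ATP, pH 7.3 HEPES buffer, preincubated with compound 30 minutes at room temperature; 5 nM 5′-fluorescein RNA substrate and 20 nM TAMRA quench probe then added. Initial rates from kinetic fluorescein decrease over ~90 minutes; IC50 by four-parameter fit.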

Sequence of PAPD5 enzyme (Q8NDF8 whole entry): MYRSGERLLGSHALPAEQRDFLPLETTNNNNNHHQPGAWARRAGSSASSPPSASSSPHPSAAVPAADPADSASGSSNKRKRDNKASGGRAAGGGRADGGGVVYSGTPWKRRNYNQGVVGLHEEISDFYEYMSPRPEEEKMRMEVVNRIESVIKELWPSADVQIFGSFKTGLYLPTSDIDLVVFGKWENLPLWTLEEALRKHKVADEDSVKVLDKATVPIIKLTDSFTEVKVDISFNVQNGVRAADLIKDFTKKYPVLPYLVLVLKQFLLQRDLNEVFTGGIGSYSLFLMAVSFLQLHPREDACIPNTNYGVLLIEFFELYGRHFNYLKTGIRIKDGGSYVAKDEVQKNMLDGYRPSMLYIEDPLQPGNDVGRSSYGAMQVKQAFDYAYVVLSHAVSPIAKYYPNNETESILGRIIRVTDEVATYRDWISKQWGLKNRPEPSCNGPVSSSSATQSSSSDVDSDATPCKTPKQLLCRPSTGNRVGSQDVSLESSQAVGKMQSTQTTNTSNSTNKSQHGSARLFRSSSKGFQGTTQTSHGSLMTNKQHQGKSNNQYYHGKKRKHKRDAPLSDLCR

Row | SMILES | pIC50
1 | CN(C)C(=O)N1CCC(n2cc(C(=O)O)c(=O)c3cc(Cl)c(N4Cc5cccnc5C4)cc32)CC1 [Example 130, 6-chloro-7-(5,7-dihydro-6H-pyrrolo[3,4-b]pyridin-6-yl)-1-(1-(dimethylcarbamoyl)piperidin-4-yl)-4-oxo-1,4-dihydroquinoline-3-carboxylic acid] | ≥ 6.00
2 | COCCN(C)c1cc2c(cc1Cl)c(=O)c(C(=O)O)cn2-c1cnc(N)cc1C [Example 132, 1-(6-amino-4-methylpyridin-3-yl)-6-chloro-7-((2-methoxyethyl)(methyl)amino)-4-oxo-1,4-dihydroquinoline-3-carboxylic acid] | ≥ 6.00
3 | COc1cc2c(=O)c(C(=O)O)cn(-c3cnc(NC(=O)OC(C)(C)C)cc3C)c2cc1N1Cc2cccnc2C1 [Example 135, 1-(6-((tert-butoxycarbonyl)amino)-4-methylpyridin-3-yl)-7-(5,7-dihydro-6H-pyrrolo[3,4-b]pyridin-6-yl)-6-methoxy-4-oxo-1,4-dihydroquinoline-3-carboxylic acid] | ≥ 6.00
4 | Cc1cc(NC(=O)OC(C)(C)C)ncc1-n1cc(C(=O)O)c(=O)c2ccc(N3Cc4cccnc4C3)cc21 [Example 136, 1-(6-((tert-butoxycarbonyl)amino)-4-methylpyridin-3-yl)-7-(5,7-dihydro-6H-pyrrolo[3,4-b]pyridin-6-yl)-4-oxo-1,4-dihydroquinoline-3-carboxylic acid] | ≥ 6.00
5 | CCN(CCOC)c1cc2c(cc1Cl)c(=O)c(C(=O)O)cn2-c1cnc(N)cc1C [Example 138, 1-(6-amino-4-methylpyridin-3-yl)-6-chloro-7-(ethyl(2-methoxyethyl)amino)-4-oxo-1,4-dihydroquinoline-3-carboxylic acid] | ≥ 6.00
6 | COc1cc2c(=O)c(C(=O)O)cn(-c3cnc(N)cc3C)c2cc1N1Cc2cccnc2C1 [Example 139, 1-(6-amino-4-methylpyridin-3-yl)-7-(5,7-dihydro-6H-pyrrolo[3,4-b]pyridin-6-yl)-6-methoxy-4-oxo-1,4-dihydroquinoline-3-carboxylic acid] | ≥ 6.00
7 | Cc1cc2c(=O)c(C(=O)O)cn(-c3cnc(NC(=O)OC(C)(C)C)cc3C)c2cc1N1Cc2cccnc2C1 [Example 142, 1-(6-((tert-butoxycarbonyl)amino)-4-methylpyridin-3-yl)-7-(5,7-dihydro-6H-pyrrolo[3,4-b]pyridin-6-yl)-6-methyl-4-oxo-1,4-dihydroquinoline-3-carboxylic acid] | ≥ 6.00
8 | Cc1cc(N(C)C)ncc1-n1cc(C(=O)O)c(=O)c2cc(Cl)c(N3Cc4cccnc4C3)nc21 [Example 146, 6-chloro-7-(5,7-dihydro-6H-pyrrolo[3,4-b]pyridin-6-yl)-1-(6-(dimethylamino)-4-methylpyridin-3-yl)-4-oxo-1,4-dihydro-1,8-naphthyridine-3-carboxylic acid] | ≥ 6.00
9 | Cc1cc(N)ncc1-n1cc(C(=O)O)c(=O)c2cc(Cl)c(-n3ccc(N)n3)nc21 [Example 147, 7-(3-amino-1H-pyrazol-1-yl)-1-(6-amino-4-methylpyridin-3-yl)-6-chloro-4-oxo-1,4-dihydro-1,8-naphthyridine-3-carboxylic acid] | ≥ 6.00
10 | CNc1ccn(-c2nc3c(cc2Cl)c(=O)c(C(=O)O)cn3-c2cnc(N)cc2C)n1 [Example 148, 1-(6-amino-4-methylpyridin-3-yl)-6-chloro-7-(3-(methylamino)-1H-pyrazol-1-yl)-4-oxo-1,4-dihydro-1,8-naphthyridine-3-carboxylic acid] | ≥ 6.00
11 | CCOc1cc2c(=O)c(C(=O)O)cn(-c3cnc(NC(=O)OC(C)(C)C)cc3C)c2cc1N1Cc2cccnc2C1 [Example 149, 1-(6-((tert-butoxycarbonyl)amino)-4-methylpyridin-3-yl)-7-(5,7-dihydro-6H-pyrrolo[3,4-b]pyridin-6-yl)-6-ethoxy-4-oxo-1,4-dihydroquinoline-3-carboxylic acid] | ≥ 6.00
12 | Cc1cc(NC(=O)OC(C)(C)C)ncc1-n1cc(C(=O)O)c(=O)c2cnc(N3Cc4cccnc4C3)cc21 [Example 150, 1-(6-((tert-butoxycarbonyl)amino)-4-methylpyridin-3-yl)-7-(5,7-dihydro-6H-pyrrolo[3,4-b]pyridin-6-yl)-4-oxo-1,4-dihydro-1,6-naphthyridine-3-carboxylic acid] | ≥ 6.00
13 | COCCNc1cc(C)c(-n2cc(C(=O)O)c(=O)c3cc(Cl)c(N4Cc5cccnc5C4)nc32)cn1 [Example 151, 6-chloro-7-(5,7-dihydro-6H-pyrrolo[3,4-b]pyridin-6-yl)-1-(6-((2-methoxyethyl)amino)-4-methylpyridin-3-yl)-4-oxo-1,4-dihydro-1,8-naphthyridine-3-carboxylic acid] | ≥ 6.00
14 | Cc1cc(N)ncc1-n1cc(C(=O)O)c(=O)c2ccc(N3Cc4cccnc4C3)c(F)c21 [Example 154, 1-(6-amino-4-methylpyridin-3-yl)-7-5,7-dihydro-6H-pyrrolo[3,4-b]pyridin-6-yl)-8-fluoro-4-oxo-1,4-dihydroquinoline-3-carboxylic acid hydrochloride] | ≥ 6.00
15 | Cc1cc(NC(=O)OC(C)(C)C)ncc1-n1cc(C(=O)O)c(=O)c2ccc(N3Cc4cccnc4C3)c(F)c21 [Example 156, 1-(6-((tert-butoxycarbonyl)amino)-4-methylpyridin-3-yl)-7-(5,7-dihydro-6H-pyrrolo[3,4-b]pyridin-6-yl)-8-fluoro-4-oxo-1,4-dihydroquinoline-3-carboxylic acid] | ≥ 6.00
16 | Cc1cc(N)ncc1-n1cc(C(=O)O)c(=O)c2cc(Cl)c(N3Cc4cccc(F)c4C3)nc21 [Example 158, 1-(6-amino-4-methylpyridin-3-yl)-6-chloro-7-(4-fluoroisoindolin-2-yl)-4-oxo-1,4-dihydro-1,8-naphthyridine-3-carboxylic acid] | ≥ 6.00
17 | Cc1cc(N)ncc1-n1cc(C(=O)O)c(=O)c2cc(Cl)c(N3Cc4ccc(F)cc4C3)nc21 [Example 160, 1-(6-amino-4-methylpyridin-3-yl)-6-chloro-7-(5-fluoroisoindolin-2-yl)-4-oxo-1,4-dihydro-1,8-naphthyridine-3-carboxylic acid] | ≥ 6.00

Other lines, results leading:

Row | pIC50 | SMILES
18 | ≥ 6.00 | Cn1cnc(Cn2cc(C(=O)O)c(=O)c3cc(Cl)c(N4Cc5cccnc5C4)cc32)c1 [Example 131, 6-chloro-7-(5,7-dihydro-6H-pyrrolo[3,4-b]pyridin-6-yl)-1-((1-methyl-1H-imidazol-4-yl)methyl)-4-oxo-1,4-dihydroquinoline-3-carboxylic acid]
19 | ≥ 6.00 | COCCCN(C)c1cc2c(cc1Cl)c(=O)c(C(=O)O)cn2-c1cnc(N)cc1C [Example 133, 1-(6-amino-4-methylpyridin-3-yl)-6-chloro-7-((3-methoxypropyl)(methyl)amino)-4-oxo-1,4-dihydroquinoline-3-carboxylic acid]
20 | ≥ 6.00 | Cc1cc(N)ncc1-n1cc(C(=O)O)c(=O)c2ccc(N3Cc4cccnc4C3)cc21 [Example 140, 1-(6-amino-4-methylpyridin-3-yl)-7-(5,7-dihydro-6H-pyrrolo[3,4-b]pyridin-6-yl)-4-oxo-1,4-dihydroquinoline-3-carboxylic acid]
21 | ≥ 6.00 | Cc1cc2c(=O)c(C(=O)O)cn(-c3cnc(N)cc3C)c2cc1N1Cc2cccnc2C1 [Example 141]
22 | ≥ 6.00 | COCCN(C)c1cc(C)c(-n2cc(C(=O)O)c(=O)c3cc(Cl)c(N4Cc5cccnc5C4)nc32)cn1 [Example 143, 6-chloro-7-(5,7-dihydro-6H-pyrrolo[3,4-b]pyridin-6-yl)-1-(6-((2-methoxyethyl)(methyl)amino)-4-methylpyridin-3-yl)-4-oxo-1,4-dihydro-1,8-naphthyridine-3-carboxylic acid]
23 | ≥ 6.00 | CCOc1cc2c(=O)c(C(=O)O)cn(-c3cnc(N)cc3C)c2cc1N1Cc2cccnc2C1 [Example 144, 1-(6-amino-4-methylpyridin-3-yl)-7-(5,7-dihydro-6H-pyrrolo[3,4-b]pyridin-6-yl)-6-ethoxy-4-oxo-1,4-dihydroquinoline-3-carboxylic acid]
24 | ≥ 6.00 | Cc1cc(N)ncc1-n1cc(C(=O)O)c(=O)c2cc(Cl)c(-n3ccnc3)nc21 [Example 152, 1-(6-amino-4-methylpyridin-3-yl)-6-chloro-7-(1H-imidazol-1-yl)-4-oxo-1,4-dihydro-1,8-naphthyridine-3-carboxylic acid]
25 | ≥ 6.00 | Cc1cc(N)ncc1-n1cc(C(=O)O)c(=O)c2cc(Cl)c(-n3cccn3)nc21 [Example 153, 1-(6-amino-4-methylpyridin-3-yl)-6-chloro-4-oxo-7-(1H-pyrazol-1-yl)-1,4-dihydro-1,8-naphthyridine-3-carboxylic acid]
26 | ≥ 6.00 | Cc1cc(N)ncc1-n1cc(C(=O)O)c(=O)c2ccc(N3Cc4ccccc4C3)c(F)c21 [Example 155, 1-(6-amino-4-methylpyridin-3-yl)-8-fluoro-7-(isoindolin-2-yl)-4-oxo-1,4-dihydroquinoline-3-carboxylic acid]
27 | ≥ 6.00 | Cc1cc(N)ncc1-n1cc(C(=O)O)c(=O)c2cc(Cl)c(N3Cc4ccccc4C3)nc21 [Example 157, 1-(6-amino-4-methylpyridin-3-yl)-6-chloro-7-(isoindolin-2-yl)-4-oxo-1,4-dihydro-1,8-naphthyridine-3-carboxylic acid]
28 | ≥ 6.00 | Cc1cc(N)ncc1-n1cc(C(=O)O)c(=O)c2cc(Cl)c(N3Cc4ccncc4C3)nc21 [Example 159, 1-(6-amino-4-methylpyridin-3-yl)-6-chloro-7-(1,3-dihydro-2H-pyrrolo[3,4-c]pyridin-2-yl)-4-oxo-1,4-dihydro-1,8-naphthyridine-3-carboxylic acid]
29 | ≥ 6.00 | COc1ccc2c(c1)CN(c1nc3c(cc1Cl)c(=O)c(C(=O)O)cn3-c1cnc(N)cc1C)C2 [Example 161, 1-(6-amino-4-methylpyridin-3-yl)-6-chloro-7-(5-methoxyisoindolin-2-yl)-4-oxo-1,4-dihydro-1,8-naphthyridine-3-carboxylic acid]

— patent US20240376100A1 (Redona Therapeutics, Inc., priority 2021, published 2024)
